In the series the test system is diluted blood (red blood cell). In kind it is cell-based, Human. Here is the method:
The term “hemolytic potential’ refers to ability of fluid to degrade the red blood cell and releases hemoglobin. The hemolytic potential is measured as release of hemoglobin from blood cells. • Blank, Negative and Positive Control • Blank: Diluted Blood • Negative control (Vehicle): 0.9% Sodium chloride (Normal Saline) is isotonic with Human blood. • Positive control: 5% Saponin was used as positive control Required quantity of blood was collected into K2 EDTA vials and immediately mixed well, this was used for the study within 24 hours of blood collection. The blood was maintained at ambient room temperature before use. Hemoglobin was determined using Advia 2120i heamtology system for this purpose, concentrations will be determined twice, before and after dilution. A separate aliquot of blood was centrifuged, and plasma was analyzed for hemoglobin to ensure blood was not hemolyzed before the study. Hemoglobin standard solutions was prepared using human hemoglobin. Initially, a stock solution of 180 mg hemoglobin/mL was prepared in Drabkin's reagent by dissolving the hemoglobin powder in Drabkin's reagent. The working standards of at least 6 different concentrations was prepared in Drabkin's reagent and was read in plate reader at 540 nm wavelength. […]

For Saponin [Positive control], the “% Hemolysis” value worked out at 100.00%.

Values taken from patent publication US20260014226A1, “STABLE READY TO DILUTE COMPOSITION OF CARFILZOMIB” (Kashiv BioSciences, LLC, priority 2021, published 2026).
